Data taken from patent publication US11052060B2, “Compounds and methods for treating autoimmunity” (ImmunoMolecular Therapeutics, INC., priority 2018, dated 2021).

Legend:
α-gliadin/DQ8 = α-gliadin/DQ8 (Homo sapiens, UniProt P01909+P01920); experiment: Inhibition of DQ8 antigen presentation to gliadin-responsive CD4 TCR transductant (489), secreted IL-2 by ELISA; format: cell-based; details: for IC50 / 489 IC50 (α-gliadin/DQ8): 489 TCR transductant, HLA-DQ8 antigen presenting cells with α-gliadin peptide, secreted IL-2; for inhibition of gliadin-responsive CD4 TCR: FIG. 3B / FIG. 4B, secreted IL-2 by ELISA, result in words
Sequence of α-gliadin/DQ8 (P01920 33-261 limits assumed, other chains not shown): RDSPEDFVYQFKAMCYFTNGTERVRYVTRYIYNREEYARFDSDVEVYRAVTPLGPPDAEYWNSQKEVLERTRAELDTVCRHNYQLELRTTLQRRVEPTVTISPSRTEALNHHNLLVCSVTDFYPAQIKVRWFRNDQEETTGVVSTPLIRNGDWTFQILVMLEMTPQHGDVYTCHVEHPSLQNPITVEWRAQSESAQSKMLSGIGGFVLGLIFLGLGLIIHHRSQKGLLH
Procedure: (§1) Inhibition of DQ8 antigen presentation by compounds of this disclosure was tested and compared in vitro. HLA-DQ8 antigen presenting cells were cultured with a fixed concentration of peptide and a concentration of one of the tested compounds for 4 hours. TCR transductants were then added to each culture condition and cultured overnight. Secreted IL-2 from the TCR transductant was measured by ELISA for each condition.
(§2) In these figures, 0 represents the TCR transductant response to peptide without the addition of the test compound.

insulin/DQ8 = insulin/DQ8 (Homo sapiens, UniProt P01909+P01920); experiment: Inhibition of DQ8 antigen presentation to insulin-responsive CD4 TCR transductant (Clone 5), secreted IL-2 by ELISA; format: cell-based; details: for IC50 / Clone 5 IC50 (insulin/DQ8): Clone 5 TCR transductant, HLA-DQ8 antigen presenting cells with insulin peptide, secreted IL-2; for inhibition of an insulin-responsive CD4 T cell receptor (TCR) transductant: FIG. 3A / FIG. 4A, secreted IL-2 by ELISA, result in words
Sequence of insulin/DQ8 (P01920 33-261 limits assumed, other chains not shown): as above
Procedure: as §1, §2

Q: With `C[C@@](N)(Cc1ccc(O)c(O)c1)C(=O)O` (stereo in doubt) [α-methyldopa, 2-amino-3-(3,4-dihydroxyphenyl)-2-methylpropanoic acid] as the compound, how does the IC50 (α-gliadin/DQ8) read?
A: Its IC50 is 17.7 µM.

Q: And the “inhibition of gliadin-responsive CD4 TCR” value (α-gliadin/DQ8)?
A: The value was “concentration-dependent inhibition”.

Q: And the IC50 (insulin/DQ8)?
A: Its IC50 is 3.4 µM.

Q: What about the “inhibition of an insulin-responsive CD4 T cell receptor (TCR) transductant” value (insulin/DQ8) of the same compound?
A: Its value is “concentration-dependent inhibition”.

Q: `CC(N)[C@H](O)c1ccc(O)c(O)c1` (stereo in doubt) [α-methylnorepinephrine, 4-(2-amino-1-hydroxypropyl)benzene-1,2-diol] was tested. Which “489 IC50 (α-gliadin/DQ8)” value (α-gliadin/DQ8) did it give?
A: Its value is “No inhibition”.

Q: And the “Clone 5 IC50 (insulin/DQ8)” value (insulin/DQ8)?
A: The value was “No inhibition”.

Q: How did the “inhibition of gliadin-responsive CD4 TCR” value (α-gliadin/DQ8) turn out when `CC(C)(C)C(N)(Cc1ccc(O)c(O)c1)C(=O)O.Cl` (centres unmarked) [Compound F994-0666] was run?
A: Its value is “concentration-dependent inhibition”.

Q: What about the “inhibition of an insulin-responsive CD4 T cell receptor (TCR) transductant” value (insulin/DQ8) of the same compound?
A: The value was “concentration-dependent inhibition”.

Q: Which results are given for `CCOC(=O)C(C)(N)Cc1ccc(O)c(O)c1` (stereo not drawn) [α-methyldopa ethyl ester, Ethyl-2-amino-3-(3,4 dihydroxyphenyl)-2-methylpropanoate]?
A: IC50 (α-gliadin/DQ8): 7.8 µM; IC50 (insulin/DQ8): 5.8 µM

Q: With `CC(N)(Cc1ccccc1)C(=O)O` (stereo not drawn) [α-methylphenylalanine, 2-amino-2-methyl-3-phenylpropanoic acid] as the compound, how does the “489 IC50 (α-gliadin/DQ8)” value (α-gliadin/DQ8) read?
A: The value was “No inhibition”.

Q: What about the “Clone 5 IC50 (insulin/DQ8)” value (insulin/DQ8) of the same compound?
A: Its value is “No inhibition”.

Q: With `CC(N)(Cc1ccc(O)cc1)C(=O)O` (stereo not drawn) [α-methyltyrosine, 2-amino-3-(4-hydroxyphenyl)-2-methylpropanoic acid] as the compound, how does the “489 IC50 (α-gliadin/DQ8)” value (α-gliadin/DQ8) read?
A: Its value is “No inhibition”.

Q: What about the “Clone 5 IC50 (insulin/DQ8)” value (insulin/DQ8) of the same compound?
A: Its value is “No inhibition”.
